Experiments:
NBD1 = test: Aggregation analysis using differential static light scattering (DSLS), thermal stability of NBD1; type: binding, Human; settings: 100 μM compound; ΔTagg = Tagg minus average Tagg of DMSO control wells; purified recombinant NBD1
Experimental: Purified recombinant NBD1 was produced using previously described methods (A. Schmidt, J. L. Mendoza, P. J. Thomas (2011) Biochemical and Biophysical Approaches to Probe CFTR Structure (365-376) M. D. Amaral, K. Kunzelmann (eds.), Cystic Fibrosis, Methods in Molecular Biology 741, Springer Science+Business Media). The effect of test compounds on thermal stability of NBD1 was evaluated by differential static light scattering (DSLS) using the Harbinger Stargazer-384 instrument (Epiphyte Three, Toronto, Canada). Test compounds were dissolved and diluted to desired concentrations in 100% DMSO. The compounds or DMSO controls (100 nL) were stamped into wells of a […] low volume optical plate (Corning Inc., Corning, NY) using the Echo 555 acoustic liquid handler (Labcyte Inc., San Jose, CA).
NBD1 protein was diluted to 0.2 mg/ml in S200 buffer (50 mM Tris-HCl, 150 mM NaCl, 5 mM MgCl2, 2 mM ATP, 2 mM DTT, pH7.6) containing 1% glycerol. 10 uL of protein solution was aliquoted into the 384-well plate harboring the test compounds and 10 uL mineral oil was overlayed onto the protein solution, using the epMotion robotic liquid handler (Eppendorf North America, Hauppauge, NY). After placing into the Stargazer instrument, the plate was heated at 1° C. per minute to 70° C. Images were captured from 25° C. to 70° C. every 0.5° C. At the end of the experiment run, instrument software integrated image files and analyzed data automatically. A […] regression curve was generated for each well, representing the increase in light scattering over time. A temperature of aggregation (Tagg) was calculated based on the inflection point of the curve. To better compare data across experiments the average Tagg for DMSO control wells was calculated and subtracted from values for wells containing compounds to obtain a “ΔTagg” value. These ΔTagg values reflect stabilizing efficacy of the compounds.

[1] = target: T1, CFTR (primary human bronchial epithelial cells from a ΔF508 homozygous CF donor, CF-HBE cells) (Homo sapiens, UniProt P13569, DEL508-508); test: TECC24 recording of CFTR-mediated transepithelial chloride transport, AUC fold over DMSO; type: cell-based; settings: test agent AUC of forskolin-stimulated IEQ divided by vehicle (DMSO) AUC, 48 hours incubation
T1 construct: Primary human bronchial epithelial cells from a ΔF508 homozygous CF donor; host or cells: primary human bronchial epithelial cells (CF-HBE), ΔF508/ΔF508 donor
Experimental: The effects of a test agent on CFTR-mediated transepithelial chloride transport was measured using TECC24 recording analysis. Test agents were solubilized in DMSO. Solubilized test agents were mixed with incubation medium containing DMEM/F12, Ultroser G (2%; Crescent Chemical, catalog #67042), Hyclone Fetal Clone II (2%; GE Healthcare, catalog #SH30066.02), bovine brain extract (0.25%; Lonza, catalog #CC-4098), insulin ([…]), IL-13 (10 ng/mL), hydrocortisone (20 nM), transferrin ([…]), triiodothyronine (500 nM), ethanolamine (250 nM), epinephrine (1.5 μM), phosphoethanolamine (250 nM), and retinoic acid (10 nM). Primary human bronchial epithelial cells from a ΔF508 homozygous CF donor (CF-HBE cells; from University of North Carolina Cystic Fibrosis Tissue Procurement Center), grown on Transwell HTS 24-well cell culture inserts (Costar, catalog #3378), were exposed to test agents or controls dissolved in incubation medium. The CF-HBE cells were cultured at 36.5° C. for 48 hours before TECC24 recordings were performed in the presence or absence of test agent, a positive control or vehicle (DMSO).
Following incubation, the transwell cell culture inserts containing the test agent or control-treated CF-HBE cells were loaded onto a TECC24 apparatus (TECC v7 or MTECC v2; EP Design) to record the transepithelial voltage (VT) and resistance (TEER) using 4 AgCl electrodes per well configured in current-clamp mode. The apical and basolateral bath solutions both contained (in mM) 140 NaCl, 5 KCl, 2 CaCl2), 1 MgCl2, 10 Hepes, and 10 glucose (adjusted to pH 7.4 with NaOH). To inhibit basal Na+ absorption, the ENaC inhibitor benzamil (10 μM) was added to the bath. Then, the adenylate cyclase activator, forskolin (10 μM), was added to the bath to activate CFTR. The forskolin-stimulated Cl—transport was halted by addition of CFTR inhibitor-172 (20 μM) to the bath at the end of the experiment to confirm specificity. VT and TEER recordings were digitally acquired at routine intervals using TECC or MTECC software (EP Design). VT and TEER were transformed into equivalent transepithelial Cl—current (IEQ), and the Area Under the Curve (AUC) of the IEQ time course between forskolin and CFTR inhibitor-172 addition is generated using Excel (Microsoft). Efficacy is expressed as the ratio of the test agent AUC divided by vehicle AUC. EC50s based on AUC are generated using the non-linear regression log(agonist) vs. response function in Prism software (Graphpad) with HillSlope fixed=1.
If a test agent increased the AUC of the forskolin-stimulated IEQ relative to vehicle in CF-HBE cells, and this increase was inhibited by CFTR inhibitor-172, then the test agent was considered a CFTR corrector.

T1 sequence (P13569 with tags, fused parts or gaps DEL508-508): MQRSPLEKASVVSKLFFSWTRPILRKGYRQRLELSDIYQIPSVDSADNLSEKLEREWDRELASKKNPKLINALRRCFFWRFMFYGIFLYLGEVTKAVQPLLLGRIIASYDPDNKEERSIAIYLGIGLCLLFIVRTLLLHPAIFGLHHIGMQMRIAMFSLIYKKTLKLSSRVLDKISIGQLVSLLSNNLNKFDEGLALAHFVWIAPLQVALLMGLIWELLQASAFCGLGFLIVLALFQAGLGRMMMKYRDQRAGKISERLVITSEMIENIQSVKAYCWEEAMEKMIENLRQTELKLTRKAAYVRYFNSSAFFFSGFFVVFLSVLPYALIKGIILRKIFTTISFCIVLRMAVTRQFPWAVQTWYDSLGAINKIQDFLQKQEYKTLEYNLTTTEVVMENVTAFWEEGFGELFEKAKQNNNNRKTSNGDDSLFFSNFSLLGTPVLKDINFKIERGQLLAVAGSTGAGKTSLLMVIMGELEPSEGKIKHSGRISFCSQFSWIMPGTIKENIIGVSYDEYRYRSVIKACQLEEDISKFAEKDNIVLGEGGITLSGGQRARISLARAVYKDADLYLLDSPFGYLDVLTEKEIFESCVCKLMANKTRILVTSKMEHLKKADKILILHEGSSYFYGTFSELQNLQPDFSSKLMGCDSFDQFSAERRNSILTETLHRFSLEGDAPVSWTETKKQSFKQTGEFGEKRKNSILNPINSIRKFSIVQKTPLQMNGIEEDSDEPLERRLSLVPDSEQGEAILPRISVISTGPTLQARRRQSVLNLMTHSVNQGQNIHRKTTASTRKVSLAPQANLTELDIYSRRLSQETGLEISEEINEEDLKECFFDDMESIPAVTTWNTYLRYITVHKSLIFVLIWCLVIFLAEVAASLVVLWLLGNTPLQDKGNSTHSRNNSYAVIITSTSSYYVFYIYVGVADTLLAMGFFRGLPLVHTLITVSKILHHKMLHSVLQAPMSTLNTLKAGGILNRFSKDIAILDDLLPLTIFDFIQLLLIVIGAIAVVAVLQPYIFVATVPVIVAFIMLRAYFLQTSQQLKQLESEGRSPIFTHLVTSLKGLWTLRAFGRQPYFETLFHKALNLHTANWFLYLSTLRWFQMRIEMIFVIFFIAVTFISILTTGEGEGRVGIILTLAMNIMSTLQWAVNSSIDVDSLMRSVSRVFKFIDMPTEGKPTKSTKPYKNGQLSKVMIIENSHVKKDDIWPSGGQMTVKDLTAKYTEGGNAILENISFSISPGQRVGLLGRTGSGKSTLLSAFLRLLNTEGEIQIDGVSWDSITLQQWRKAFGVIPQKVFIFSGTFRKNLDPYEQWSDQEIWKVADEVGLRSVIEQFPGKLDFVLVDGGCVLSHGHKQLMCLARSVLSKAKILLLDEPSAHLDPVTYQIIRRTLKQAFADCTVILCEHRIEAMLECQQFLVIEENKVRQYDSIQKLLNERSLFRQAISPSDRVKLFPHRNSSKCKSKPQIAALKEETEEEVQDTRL

Row | TECC24 @ 10 uM over DMSO [1] | SMILES | DSLS NBD1/3D Human Stability delta-T (° C.) @ 100 (μM) (NBD1)
1 | – | CC(c1cn2c(n1)-c1cc(Oc3c(F)cc4[nH]ccc4c3F)ccc1CCC2)c1cccc(CCC(=O)O)c1F (stereo not shown) [Example 8, 3-(3-(1-(10-((4,6-difluoro-1H-indol-5-yl)oxy)-6,7-dihydro-5H-benzo[c]imidazo[1,2-a]azepin-2-yl)ethyl)-2-fluorophenyl)propanoic acid] | A (A: T ≥ 8° C.)
2 | C (“C” refers to AUC @10 uM <= 4) | C[C@@H](c1cccc(CCC(=O)O)c1F)c1cnc2n1CCc1ccc(Oc3c(F)cc4[nH]ccc4c3F)cc1-2 (single isomer, unassigned) [Example 5] | B (B: 4-8° C.)
3 | – | C[C@H](c1cccc(CC(=O)O)c1F)c1cnc2n1CCc1ccc(Oc3c(F)cc4[nH]ccc4c3F)cc1-2 (single isomer, unassigned) [Example 2] | A (A: T ≥ 8° C.)
4 | – | CC(c1nc2n(n1)CC(CO)Oc1ccc(Oc3c(F)cc4[nH]ccc4c3F)cc1-2)c1cccc(CCC(=O)O)c1F (stereo not shown) [Example 12, 3-[3-[1-[10-[(4,6-difluoro-1H-indol-5-yl)oxy]-6-(hydroxymethyl)-5,6-dihydro-[1,2,4]triazolo[1,5-d][1,4]benzoxazepin-2-yl]ethyl]-2-fluoro-phenyl]propanoic acid] | A (A: T ≥ 8° C.)
5 | – | C[C@@H](c1cccc(CC(=O)O)c1F)c1cnc2n1CCc1ccc(Oc3c(F)cc4[nH]ccc4c3F)cc1-2 (single isomer, unassigned) [Example 1] | A (A: T ≥ 8° C.)
6 | C (“C” refers to AUC @10 uM <= 4) | COC(=O)CCc1cccc(C(C)c2nc3n(n2)CCCOc2ccc(Oc4c(F)cc5[nH]ccc5c4F)cc2-3)c1F (stereo not shown) [Example 10, methyl 3-(3-(1-(11-((4,6-difluoro-1H-indol-5-yl)oxy)-6,7-dihydro-5H-benzo[b][1,2,4]triazolo[5,1-d][1,5]oxazocin-2-yl)ethyl)-2-fluorophenyl)propanoate] | C (C: ≤ 4° C.)
7 | – | CC(c1nc2n(n1)CCCc1ccc(Oc3c(F)cc4[nH]ccc4c3F)cc1-2)c1cccc(CCC(=O)O)c1F (stereo not shown) [Example 9, 3-(3-(1-(10-((4,6-difluoro-1H-indol-5-yl)oxy)-6,7-dihydro-5H-benzo[c][1,2,4]triazolo[1,5-a]azepin-2-yl)ethyl)-2-fluorophenyl)propanoic acid] | B (B: 4-8° C.)
8 | C (“C” refers to AUC @10 uM <= 4) | CC(c1nc2n(n1)CCCOc1ccc(Oc3c(F)cc4[nH]ccc4c3F)cc1-2)c1cccc(CCC(=O)O)c1F (stereo not shown) [Example 11, 3-[3-[1-[14-[(4,6-difluoro-1H-indol-5-yl)oxy]-10-oxa-3,5,6-triazatricyclo[9.4.0.02,6]pentadeca-1(15),2,4,11,13-pentaen-4-yl]ethyl]-2-fluoro-phenyl]propanoic acid] | A (A: T ≥ 8° C.)
9 | – | CC(c1nc2n(n1)CCOc1ccc(Oc3c(F)cc4[nH]ccc4c3F)cc1-2)c1cccc(CCC(=O)O)c1F (single isomer, unassigned) [Example 16, 3-[3-[1-[10-[(4,6-difluoro-1H-indol-5-yl)oxy]-5,6-dihydro-[1,2,4]triazolo[1,5-d][1,4]benzoxazepin-2-yl]ethyl]-2-fluoro-phenyl]propanoic acid] | C (C: ≤ 4° C.)
10 | A (“A” refers to AUC @10 uM >= 12) | C[C@H](c1cccc(CCC(=O)O)c1F)c1cnc2n1CCc1ccc(Oc3c(F)cc4[nH]ccc4c3F)cc1-2 (single isomer, unassigned) [Example 6] | A (A: T ≥ 8° C.)
11 | A (“A” refers to AUC @10 uM >= 12) | CC(c1cccc(CC(=O)O)c1F)c1cnc2c3cc(Oc4c(F)cc5[nH]ccc5c4F)ccc3ccn12 (stereo not shown) [Example 3, 2-(3-(1-(9-((4,6-difluoro-1H-indol-5-yl)oxy)imidazo[2,1-a]isoquinolin-3-yl)ethyl)-2-fluorophenyl)acetic acid] | A (A: T ≥ 8° C.)
12 | – | CC(c1cccc(CCC(=O)O)c1F)c1cnc2c3cc(Oc4c(F)cc5[nH]ccc5c4F)ccc3ccn12 (stereo not shown) [Example 7, 3-(3-(1-(9-((4,6-difluoro-1H-indol-5-yl)oxy)imidazo[2,1-a]isoquinolin-3-yl)ethyl)-2-fluorophenyl)propanoic acid] | A (A: T ≥ 8° C.)
13 | A (“A” refers to AUC @10 uM >= 12) | CC(c1nc2n(n1)CCOc1ccc(Oc3c(F)cc4[nH]ccc4c3F)cc1-2)c1cccc(CCC(=O)O)c1F (single isomer, unassigned) [Example 15, 3-[3-[1-[10-[(4,6-difluoro-1H-indol-5-yl)oxy]-5,6-dihydro-[1,2,4]triazolo[1,5-d][1,4]benzoxazepin-2-yl]ethyl]-2-fluoro-phenyl]propanoic acid] | A (A: T ≥ 8° C.)
14 | C (“C” refers to AUC @10 uM <= 4) | CC(c1nc2n(n1)CC(O)COc1ccc(Oc3c(F)cc4[nH]ccc4c3F)cc1-2)c1cccc(CCC(=O)O)c1F (single isomer, unassigned) [Example 13, 3-[3-[1-[14-[(4,6-difluoro-1H-indol-5-yl)oxy]-8-hydroxy-10-oxa-3,5,6-triazatricyclo[9.4.0.02,6]pentadeca-1(15),2,4,11,13-pentaen-4-yl]ethyl]-2-fluoro-phenyl]propanoic acid] | A (A: T ≥ 8° C.)

Row | SMILES | TECC24 @ 10 uM over DMSO [1] | DSLS NBD1/3D Human Stability delta-T (° C.) @ 100 (μM) (NBD1)
15 | CC(c1nc2n(n1)CC(O)COc1ccc(Oc3c(F)cc4[nH]ccc4c3F)cc1-2)c1cccc(CCC(=O)O)c1F (single isomer, unassigned) [Example 14, 3-[3-[1-[14-[(4,6-difluoro-1H-indol-5-yl)oxy]-8-hydroxy-10-oxa-3,5,6-triazatricyclo[9.4.0.02,6]pentadeca-1(15),2,4,11,13-pentaen-4-yl]ethyl]-2-fluoro-phenyl]propanoic acid] | B (“B” refers to AUC @ 10 uM between 4-12) | A (A: T ≥ 8° C.)
16 | O=C(O)CCc1cccc(Cc2nc3n(n2)Cc2ccc(Oc4c(F)cc5[nH]ccc5c4F)cc2-3)c1F [Example 4, 3-(3-((8-((4,6-difluoro-1H-indol-5-yl)oxy)-5H-triazolo[5,1-a]isoindol-2-yl)methyl)-2-fluorophenyl)propanoic acid] | B (“B” refers to AUC @ 10 uM between 4-12) | B (B: 4-8° C.)
